The target of the assay is T1, human monoamine oxidase A (hMAO-A) (Homo sapiens, UniProt P21397).
T1 construct: gene MAOA
T1 sequence (P21397 1-527): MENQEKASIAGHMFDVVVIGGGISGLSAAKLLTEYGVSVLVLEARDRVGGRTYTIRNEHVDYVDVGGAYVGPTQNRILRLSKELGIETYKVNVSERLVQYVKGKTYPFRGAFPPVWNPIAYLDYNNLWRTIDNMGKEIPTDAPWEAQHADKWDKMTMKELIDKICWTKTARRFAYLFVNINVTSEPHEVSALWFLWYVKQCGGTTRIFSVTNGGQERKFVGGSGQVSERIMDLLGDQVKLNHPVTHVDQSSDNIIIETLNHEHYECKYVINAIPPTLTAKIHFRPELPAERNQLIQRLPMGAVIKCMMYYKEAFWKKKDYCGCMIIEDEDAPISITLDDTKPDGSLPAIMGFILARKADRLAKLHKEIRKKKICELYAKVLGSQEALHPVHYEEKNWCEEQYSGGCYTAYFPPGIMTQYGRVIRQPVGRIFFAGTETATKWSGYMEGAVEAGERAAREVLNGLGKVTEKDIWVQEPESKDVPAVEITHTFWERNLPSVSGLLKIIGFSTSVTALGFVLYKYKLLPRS
Put plainly: MAO-Glo luminescence enzyme assay, single concentration of […]. The class given is biochemical.

As a reminder, the inhibition is the change of the read-out against control, counted positive when it falls. Read a low inhibition as a weak effect. Take `CC(=O)CC/C=C1/CC[C@H](C(C)(C)O)OC1=O` [compound 1, 6R-(2-hydroxypropan-2-yl)-3Z-(4-oxopentylidene)tetrahydro-2H-pyran-2-one]: the inhibition at 200 µM worked out at 42.2 ± 2.68%.

The record behind these values is article PMC9370394, “New Monocyclic Terpenoid Lactones from a Brown Algae Sargassum macrocarpum as Monoamine Oxidase Inhibitors” (Plants, 2022).
